# Measured values taken from patent publication US20040192606A1, “Method of promoting angiogenesis” (priority 1995, published 2004).
# Read-outs that look alike come from different tables or passages of the source.
# What was measured:
# [1] = tested on: THP-1 cells; experiment: VEGF protein secretion by THP-1 cells (ELISA of conditioned media); type: cell-based, human; conditions: for inhibition of relaxin-induced VEGF stimulation: PKA inhibitors used at or above their Ki doses, ELISA, data not shown; for VEGF induction: 17 nM (equivalent molar concentration to relaxin)
# [2] = tested on: THP-1 cells; experiment: cAMP levels in THP-1 cells; type: cell-based, human
# [3] = tested on: VEGF transcripts in THP-1 cells; experiment: PCR and Southern blot analysis of steady state VEGF mRNA in THP-1 cells; type: cell-based, human
# [4] = Serum concentration of relaxin in ongoing clinical trials; type: in vivo, human
# Method: While human dosage levels for treating depression have yet to be optimized for relaxin, generally, a daily dose is from about […] of body weight per day, preferably about […] μg/kg, and most preferably about 12.0 to 100.0 μg/kg. Generally it is sought to obtain a serum concentration of relaxin approximating or greater than normal circulating levels in pregnancy, i.e., 1.0 ng/ml, such as 0.5 to 50 ng/ml, preferably 1.0 to 20 ng/ml. […] Thus, for administration to a 70 kg person, the dosage range would be about 7.0 μg to 3.5 mg per day, preferably about […] to 2.1 mg per day, and most preferably about […] per day. The amount of relaxin administered will, of course, be dependent on the subject and the severity of the affliction, the manner and schedule of administration and the judgment of the prescribing physician.
# [5] = tested on: THP-1 cells; experiment: Other effects on THP-1 cells (morphology, thymidine uptake, metalloproteinase expression, nitric oxide production); type: cell-based, human
# [6] = tested on: rabbit corneal stroma; experiment: Rabbit corneal assay (neo-capillary growth toward implanted hydron disc); type: in vivo
# Method: (§1) In vivo activity for angiogenesis is determined by the rabbit corneal injection protocol and by the matrigel subcutaneous insert vascularization protocol.
# Test and control material is mixed with hydron into a 0.1 cc disc (resembling a small contact lens). The disc is implanted into a rabbit corneal stroma micro pocket using appropriate anesthesia for the procedure. After one week, neo-capillary growth toward the disc is measured and scored (0-4) utilizing a standard anatomic grading scale. A score of 0 means no growth. A score of 1 means capillaries (one or two) just entering the corneal stroma from the limbus toward the pocket. A score of 3 means vessels have grown to the base of the implant. A score of 4 means vessels have grown around the implant.
# [7] = tested on: mouse dorsum (matrigel plug); experiment: Murine matrigel subcutaneous insert vascularization assay; type: in vivo
# Method: as §1
# Matrigel (Collaborative Biomedical, Bedford, Mass.) is a reconstituted basement membrane complex containing primarily laminin and type IV collagen. It is isolated from the Engelbreth-Holm-Swarm (EHS) murine tumor. At room temperature, matrigel is liquid; but when injected subcutaneously into a mouse it reconstitutes as a gel.
# Test substance is mixed with matrigel (1%v/v media in 1 cc matrigel) at room temperature and then injected subcutaneously into a mouse dorsum (5 month old female Swiss-Webster). After one week, the mouse is sacrificed and the gel plug(s) harvested. Samples are fixed in buffered formalin, paraffin embedded, sectioned (4 μ) and H&E stained. The samples are scored 1 (positive), 0.5 (indeterminate) or 0 (negative).
compound,measurement,setting,value
C[C@]12CC[C@@H]3c4ccc(O)cc4CC[C@H]3[C@@H]1CC[C@@H]2O [17-β-estradiol],effect on relaxin VEGF stimulation compared to relaxin alone,"[1]; 1 μM, simultaneously with relaxin or 48 hours pretreatment",Neither treatment protocol resulted in a difference in VEGF stimulation
O=S(=O)(NCCNC/C=C/c1ccc(Br)cc1)c1cccc2cnccc12 [H-89],inhibition of relaxin-induced VEGF stimulation,[1],failed to completely inhibit VEGF stimulation
"CC(C)Cn1c(=O)n(C)c(=O)c2[nH]cnc21 [IBMX, isobutylmethylxanthing]",Net VEGF Expr,"[1]; Exp 1, 50 × 10^−6M, 24 h, net of placebo-treated control, mean ± SEM",154 ± 46 pg/mL
same,Net VEGF Expr,"[1]; Exp 2, 50 × 10^−6M, 8 h, net of placebo, mean ± SEM",209 ± 20 pg/mL
CCCCCCOC(=O)[C@]1(O)C[C@@H]2O[C@@]1(C)n1c3ccccc3c3c4c(c5c6ccccc6n2c5c31)C(=O)NC4 [KT5720],inhibition of relaxin-induced VEGF stimulation,[1],failed to completely inhibit VEGF stimulation
"CCCCCCCCCCCCCC(=O)O[C@@H]1[C@@H](C)[C@@]2(O)[C@@H](C=C(CO)C[C@]3(O)C(=O)C(C)=C[C@@H]23)[C@@H]2C(C)(C)[C@]12OC(C)=O [PMA, reference compound]",cAMP levels,"[2]; 1 ng/ml, data not shown",does not increase cAMP levels
same,Net VEGF Expr,"[1]; Exp 5, 1 ng/ml, 8 h, net of placebo, mean ± SEM",342 ± 18 pg/mL
Nc1ncnc2c1ncn2C1CCCO1 (stereo not shown) [SQ22536],inhibition of relaxin-induced VEGF stimulation,[1],failed to completely inhibit VEGF stimulation
"C[C@@H]1C[C@@H]([C@H](O)CC2CC(=O)NC(=O)C2)C(=O)[C@@H](C)C1 [cycloheximide, reference compound]",effect on relaxin-induced increase of VEGF transcripts,[3]; added with recombinant human relaxin (H2),did not interfere with or amplify this increase
"CCCC(=O)Nc1ncnc2c1ncn2[C@@H]1O[C@@H]2COP(=O)(O)O[C@H]2[C@H]1OC(=O)CCC [dbcAMP, Dibutyryl cAMP]",Net VEGF Expr,"[1]; Exp 3, 10^−4M, 8 h, net of placebo, mean ± SEM",488 ± 27 pg/mL
same,Net VEGF Expr,"[1]; Exp 3, 10^−5M, 8 h, net of placebo, mean ± SEM",142 ± 26 pg/mL
same,Net VEGF Expr,"[1]; Exp 3, 10^−6M, 8 h, net of placebo",-0- pg/ml
"CCCC(=O)Nc1nc2c(ncn2[C@@H]2O[C@@H]3COP(=O)(O)O[C@H]3[C@H]2OC(=O)CCC)c(=O)[nH]1 [dbcGMP, dibutyryl cGMP]",Net VEGF Expr,"[1]; Exp 3, 10^−6M-10^−4M (each dose), 8 h, net of placebo",-0- pg/ml
Cholera toxin,Net VEGF Expr,[1],1278 ± 106 pg/mL
IGF-I: member of the relaxin family (Promega),VEGF induction,[1],Neither IGF-I and IGF-II induced VEGF production
IGF-II: member of the relaxin family (Promega),VEGF induction,[1],Neither IGF-I and IGF-II induced VEGF production
Pertussis toxin,Net VEGF Expr,"[1]; Exp 4, 1 μg/ml, 8 h, net of placebo, mean ± SEM",-0- pg/ml
"insulin: member of the relaxin family, compared at 17 nM",VEGF expression relative to that induced by relaxin,[1]; 17 nM,roughly 30%
relaxin,cAMP levels,"[2]; relaxin treatment, dose not given",causes an increase in cAMP
same,time course of VEGF in conditioned media,[1]; 1 ng/ml and 100 ng/ml,increased in the conditioned media in roughly linear fashion up to at least 72 hours
same,VEGF protein secretion (dose dependence),"[1]; 0.04-50 ng/ml, 8 hours",dose dependent manner
same,Net VEGF Expr,"[1]; Exp 2, 10 ng/ml, 8 h, net of placebo, mean ± SEM",161 ± 19 pg/mL
same,relaxin concentration at which VEGF protein secretion peaks,"[1]; doses 0.04-50 ng/ml, 8 hours",1 ng/mL
same,serum concentration,"[4]; dosage about 6.0 μg/kg, ±0.3",about 1.8 ng/ml
same,serum concentration,"[4]; dosage about 12.0 μg/kg, ±0.6",~3.6 ng/mL
same,serum concentration,"[4]; dosage about 50 μg/kg, ±1.6",~11.8 ng/mL
same,"morphological changes (adherence to plastic, clumping)",[5],no observable morphological changes
same,time at which increase of VEGF transcripts is detectable,[3]; 10 ng/ml,30 min
same,"increase of VEGF121, 165 and 189 PCR bands","[3]; 10 ng/ml, by 2 hours",roughly 2 fold
same,intensity of VEGF transcript bands on Southern blot,[3]; 100 ng/ml,intensity of all bands is increased
same,mean score of neo-capillary growth toward the disc (0-4 anatomic grading scale),"[6]; disc in rabbit corneal stroma micro pocket, after one week, n=8, standard error 0.5, placebo 0.6, P 0.08",1.5
same,angiogenic activity (conclusion),[6]; rabbit corneal assay,angiogenic
same,angiogenic activity (conclusion),[7]; murine matrigel assay,angiogenic
same,"mean score of gel plugs (1 positive, 0.5 indeterminate, 0 negative)","[7]; subcutaneous matrigel in mouse, after one week, standard error 0.1, control 0.3, P 0.02",0.8
